Our source for the Activity and fold change (FC) values is ChEMBL document CHEMBL2396574, “Design, synthesis and evaluation of retinoids with novel bulky hydrophobic partial structures” (Bioorg Med Chem, 2013).

Calls of active or inactive are those of the source. The calls are words filed in the database; no cut-off is given here.

The target in assay [1] is T1, Retinoic acid receptor RXR-beta (Homo sapiens) (UniProt P28702).
T1 sequence (whole entry): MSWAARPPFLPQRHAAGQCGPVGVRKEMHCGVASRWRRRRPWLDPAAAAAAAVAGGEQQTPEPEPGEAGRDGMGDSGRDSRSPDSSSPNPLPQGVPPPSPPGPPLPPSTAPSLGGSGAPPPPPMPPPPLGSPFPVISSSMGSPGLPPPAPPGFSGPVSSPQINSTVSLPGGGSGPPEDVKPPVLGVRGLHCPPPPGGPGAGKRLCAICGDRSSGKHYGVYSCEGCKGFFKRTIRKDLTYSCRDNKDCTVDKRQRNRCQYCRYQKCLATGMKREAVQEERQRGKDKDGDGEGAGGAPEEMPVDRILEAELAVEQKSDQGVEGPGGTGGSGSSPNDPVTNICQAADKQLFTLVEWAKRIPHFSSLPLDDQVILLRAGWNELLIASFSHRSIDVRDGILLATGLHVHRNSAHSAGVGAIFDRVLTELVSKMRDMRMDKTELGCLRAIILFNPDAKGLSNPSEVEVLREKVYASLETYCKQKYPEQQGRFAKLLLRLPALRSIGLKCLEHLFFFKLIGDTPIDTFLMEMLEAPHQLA
Put plainly: Transactivation of full-length RXRbeta (unknown origin) expressed in African green monkey COS1 cells at 1000 nM by luciferase reporter gene assay. It counts as cell-based. The note with it: COS-1. On the technique in general: Reporter assays use an easily measured gene product as a stand-in for the process of interest.

Assay [2] addresses T2, Retinoic acid receptor beta (Homo sapiens) (UniProt P10826).
T2 sequence (whole entry): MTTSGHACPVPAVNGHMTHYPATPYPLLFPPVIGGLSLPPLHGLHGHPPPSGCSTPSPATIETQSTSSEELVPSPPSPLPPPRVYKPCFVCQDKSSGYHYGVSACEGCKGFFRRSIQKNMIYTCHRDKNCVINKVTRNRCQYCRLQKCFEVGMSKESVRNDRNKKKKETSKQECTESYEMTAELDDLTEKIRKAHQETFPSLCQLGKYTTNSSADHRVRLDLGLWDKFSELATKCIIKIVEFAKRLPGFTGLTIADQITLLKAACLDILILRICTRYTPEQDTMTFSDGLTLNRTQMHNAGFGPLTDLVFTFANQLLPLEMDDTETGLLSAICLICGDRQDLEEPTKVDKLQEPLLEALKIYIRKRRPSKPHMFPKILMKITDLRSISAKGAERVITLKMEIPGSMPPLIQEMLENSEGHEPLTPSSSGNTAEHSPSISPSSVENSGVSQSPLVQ
In words: Transactivation of Gal4-fused RARbeta (unknown origin) expressed in African green monkey COS1 cells at 100 nM by luciferase reporter gene assay relative to DMSO-treated control. The note with it: COS-1. It counts as cell-based.

Assay [3] deals with HL-60. Put plainly: Induction of human HL60 cell differentiation into myeloid cells at 10 nM after 4 days by NBT reduction assay relative to control. It counts as functional.
Assay [4] concerns HL-60. Put plainly: Induction of human HL60 cell differentiation into myeloid cells at 100 nM after 4 days by NBT reduction assay relative to control. It counts as functional.
Assay [5] has as its target T3, Retinoic acid receptor gamma (Homo sapiens) (UniProt P13631).
T3 sequence (whole entry): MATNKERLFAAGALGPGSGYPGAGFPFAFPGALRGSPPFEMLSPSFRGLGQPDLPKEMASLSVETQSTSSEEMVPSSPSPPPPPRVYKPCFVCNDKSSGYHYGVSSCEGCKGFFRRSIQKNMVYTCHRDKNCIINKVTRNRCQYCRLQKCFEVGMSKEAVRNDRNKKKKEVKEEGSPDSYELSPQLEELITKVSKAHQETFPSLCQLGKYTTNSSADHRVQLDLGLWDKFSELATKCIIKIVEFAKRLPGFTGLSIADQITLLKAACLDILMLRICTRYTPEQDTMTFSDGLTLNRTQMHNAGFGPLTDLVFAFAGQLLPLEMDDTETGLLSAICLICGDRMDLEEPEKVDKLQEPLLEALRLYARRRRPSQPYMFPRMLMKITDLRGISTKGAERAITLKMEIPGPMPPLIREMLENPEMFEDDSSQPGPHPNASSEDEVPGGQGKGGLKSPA
Put plainly: Transactivation of Gal4-fused RARgamma (unknown origin) expressed in African green monkey COS1 cells at 100 nM by luciferase reporter gene assay relative to DMSO-treated control. It counts as cell-based. The settings on record: COS-1.

For assay [6], the target named is T4, Retinoic acid receptor RXR-gamma (Homo sapiens) (UniProt P48443).
T4 sequence (whole entry): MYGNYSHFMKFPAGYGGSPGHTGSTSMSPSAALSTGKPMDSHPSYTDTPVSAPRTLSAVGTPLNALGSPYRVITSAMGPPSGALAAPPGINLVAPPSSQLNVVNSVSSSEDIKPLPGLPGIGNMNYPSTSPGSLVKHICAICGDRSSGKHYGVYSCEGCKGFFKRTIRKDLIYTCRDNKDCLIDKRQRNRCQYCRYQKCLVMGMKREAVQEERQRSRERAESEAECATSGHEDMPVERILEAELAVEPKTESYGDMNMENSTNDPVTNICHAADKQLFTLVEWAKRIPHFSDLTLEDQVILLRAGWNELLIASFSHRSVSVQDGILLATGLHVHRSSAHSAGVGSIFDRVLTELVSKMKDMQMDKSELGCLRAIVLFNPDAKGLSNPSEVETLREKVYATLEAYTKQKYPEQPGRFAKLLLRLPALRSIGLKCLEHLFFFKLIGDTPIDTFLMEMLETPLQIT
In words: Transactivation of full-length RXRgamma (unknown origin) expressed in African green monkey COS1 cells at 1000 nM by luciferase reporter gene assay. It counts as cell-based. The settings on record: COS-1.

Regarding `O=C(Nc1ccc(C(=O)O)c(Cl)c1)c1cc2c3c(c1)CCCC3CCC2`, the outcome in assay [1] and in assay [6] was inactive. Moreover, the fold change (FC) in assay [2] amounted to 6; in assay [5] it was 1. In addition, the Activity in the assay with HL-60 [3] is recorded as 16%; in the assay with HL-60 [4], 37%.

Turning to `CC12CCCc3cc(NC(=O)c4ccc(C(=O)O)s4)cc(c31)CCC2`, the outcome in assay [1] and in assay [6] was inactive. In assay [5], this compound had a fold change (FC) of 1.

On to `O=C(Nc1ccc(C(=O)O)c(F)c1)c1cc2c3c(c1)CCCC3CCC2`, for which the result in assay [1] and in assay [6] was inactive. The fold change (FC) amounted to 7 in assay [2] and 2 in assay [5]. Further, the Activity with HL-60 [3] amounted to 49%; in the assay with HL-60 [4], 60%.

As for `CC1(C)CCC(C)(C)c2cc(NC(=O)c3ccc(C(=O)O)cc3)ccc21` [TAMIBAROTENE], the outcome in assay [1] and in assay [6] was inactive. Besides, the Activity with HL-60 [3] amounted to 60%; in the assay with HL-60 [4], 68%.

In the case of `O=C(O)c1ccc(C(=O)Nc2cc3c4c(c2)CCCC4CCC3)s1`, the outcome in assay [1] and in assay [6] was inactive. In assay [5], this compound came in with a fold change (FC) of 1.

For `O=C(Nc1ccc(C(=O)O)c(Cl)c1)c1cc2c3c(c1)CCCCC3CCCC2`, the outcome in assay [1] and in assay [6] was inactive. The fold change (FC) amounted to 13 in assay [2] and 2 in assay [5]. The figures for the Activity in the assay with HL-60 [3] and in the assay with HL-60 [4] were 18% and 35%, respectively.

In the case of `COc1cc(NC(=O)c2cc3c4c(c2)CCCC4CCC3)ccc1C(=O)O`, the result in assay [1] and in assay [6] was inactive. Moreover, the fold change (FC) came out at 2 in assay [2] and 1 in assay [5]. The Activity was 7% with HL-60 [3] and 10% with HL-60 [4].

Turning to `CC1=C(/C=C/C(C)=C/C=C/C(C)=C/C(=O)O)C(C)(C)CCC1` [TRETINOIN], the outcome in assay [1] and in assay [6] was inactive. For the same compound, the figures for the Activity in the assay with HL-60 [3] and in the assay with HL-60 [4] were 46% and 71%, respectively.

In the case of `CC12CCCc3cc(NC(=O)c4ccc(C(=O)O)nc4)cc(c31)CCC2`, the result in assay [1] and in assay [6] was inactive. In assay [5], this compound returned a fold change (FC) of 1.

Turning to `CC12CCCc3cc(C(=O)Nc4ccc(C(=O)O)c(F)c4)cc(c31)CCC2`, the result in assay [1] and in assay [6] was inactive. For the same compound, the values for the fold change (FC) in assay [2] and in assay [5] were 13 and 2, respectively. Also, the Activity with HL-60 [3] was found to be 18%; with HL-60 [4], 29%.

Consider `COc1cc(NC(=O)c2cc3c4c(c2)CCCC4(C)CCC3)ccc1C(=O)O`, for which the result in assay [1] and in assay [6] was inactive. For the same compound, the fold change (FC) in assay [2] came out at 3; in assay [5] it was 1. Further, the Activity with HL-60 [3] came out at 5%; in the assay on HL-60 [4], 17%.

Regarding `O=C(Nc1cc2c3c(c1)CCCC3CCC2)c1ccc(C(=O)O)nc1`, the result in assay [1] and in assay [6] was inactive. Moreover, the fold change (FC) in assay [5] turned out to be 1.

As to `CC12CCCc3cc(C(=O)Nc4ccc(C(=O)O)cc4)cc(c31)CCC2`, the outcome in assay [1] and in assay [6] was inactive. The fold change (FC) in assay [2] was 20; in assay [5], 4. Also, in the assay on HL-60 [3], the Activity was found to be 36%.

For `CC12CCCc3cc(C(=O)Nc4ccc(C(=O)O)c(Cl)c4)cc(c31)CCC2`, the outcome in assay [1] and in assay [6] was inactive. The fold change (FC) in assay [2] was determined as 8; in assay [5], 1. Besides, the Activity with HL-60 [3] worked out at 19%; with HL-60 [4], 21%.

`O=C(O)c1ccc(NC(=O)c2cc3c4c(c2)CCCC4CCC3)nc1`: the result in assay [1] and in assay [6] was inactive. The fold change (FC) in assay [2] was found to be 40; in assay [5] it was 20. In addition, the Activity in the assay with HL-60 [3] is given as 54%; in the assay with HL-60 [4], 59%.

On to `O=C(Nc1ccc(C(=O)O)c(O)c1)c1cc2c3c(c1)CCCCC3CCCC2`, for which the result in assay [1] and in assay [6] was inactive. Also, the fold change (FC) was 11 in assay [2] and 2 in assay [5]. For the same compound, the Activity with HL-60 [3] came out at 29%; in the assay with HL-60 [4], 41%.

In the case of `CC12CCCc3cc(C(=O)Nc4ccc(C(=O)O)s4)cc(c31)CCC2`, the result in assay [1] and in assay [6] was inactive. Further, the fold change (FC) in assay [2] and in assay [5] was 1 throughout.

As for `CC12CCCc3cc(NC(=O)c4ccc(C(=O)O)cc4)cc(c31)CCC2`, the outcome in assay [1] and in assay [6] was inactive. Moreover, the values for the fold change (FC) in assay [2] and in assay [5] were 12 and 1, respectively. Further, the Activity in the assay with HL-60 [3] came to 12%.

For the compound `COc1cc(NC(=O)c2cc3c4c(c2)CCCCC4CCCC3)ccc1C(=O)O`, the outcome in assay [1] and in assay [6] was inactive. Also, the fold change (FC) in assay [2] was 1; in assay [5], 2.

For the compound `O=C(O)c1ccc(C(=O)Nc2cc3c4c(c2)CCCCC4CCCC3)nc1`, the outcome in assay [1] and in assay [6] was inactive. Besides, the fold change (FC) in assay [2] was determined as 17; in assay [5], 2.

For `O=C(Nc1ccc(C(=O)O)s1)c1cc2c3c(c1)CCCC3CCC2`, the outcome in assay [1] and in assay [6] was inactive. The compound further gave a fold change (FC) in assay [5] of 1.

With `CC12CCCc3cc(C(=O)Nc4ccc(C(=O)O)nc4)cc(c31)CCC2`, the outcome in assay [1] and in assay [6] was inactive. For the same compound, the fold change (FC) in assay [5] was 1.

As for `O=C(O)c1ccc(NC(=O)c2cc3c4c(c2)CCCCC4CCCC3)nc1`, the result in assay [1] and in assay [6] was inactive. For the same compound, the fold change (FC) came to 45 in assay [2] and 56 in assay [5].

For the compound `O=C(Nc1ccc(C(=O)O)nc1)c1cc2c3c(c1)CCCC3CCC2`, the outcome in assay [1] and in assay [6] was inactive. Further, in assay [5], the fold change (FC) was determined as 1.
